Measured values from the NIST ThermoML archive (doi:10.1016/j.jct.2014.03.001).
± gives the expanded uncertainty stated by the source.

Experiment: mn = molality of the nth substance listed, in mol/kg
Conditions: 84.51 kPa, Liquid; for speed of sound: Frequency=3 MHz, Sing-around technique in a fixed-path interferometer; for mass density: Vibrating tube method

CCCCCCCCCCCCn1cc[n+](C)c1.[Br-] [1-dodecyl-3-methylimidazolium bromide] + O
Conditions | mass density [kg/m3] | speed of sound [m/s]
288.15 K, m1 = 0.00233 | 999.188 ± 0.11 | 1467.3 ± 1.2
288.15 K, m1 = 0.00278 | 999.209 ± 0.11 | 1467.4 ± 1.2
288.15 K, m1 = 0.00301 | 999.216 ± 0.11 | 1467.5 ± 1.2
288.15 K, m1 = 0.00467 | 999.282 ± 0.11 | 1467.7 ± 1.2
288.15 K, m1 = 0.00501 | 999.296 ± 0.11 | 1467.9 ± 1.2
288.15 K, m1 = 0.00665 | 999.36 ± 0.11 | 1468.4 ± 1.2
288.15 K, m1 = 0.00889 | 999.451 ± 0.11 | 1469 ± 1.2
288.15 K, m1 = 0.00906 | 999.458 ± 0.11 | 1469 ± 1.2
288.15 K, m1 = 0.01229 | 999.569 ± 0.11 | 1469.4 ± 1.2
288.15 K, m1 = 0.01511 | 999.659 ± 0.11 | 1469.4 ± 1.2
288.15 K, m1 = 0.01804 | 999.736 ± 0.11 | 1469.5 ± 1.2
288.15 K, m1 = 0.02431 | 999.927 ± 0.11 | 1469.6 ± 1.2
288.15 K, m1 = 0.03042 | 1000.12 ± 0.11 | 1469.7 ± 1.2
288.15 K, m1 = 0.04595 | 1000.6 ± 0.11 | 1470 ± 1.2
288.15 K, m1 = 0.06124 | 1001.06 ± 0.11 | 1470.2 ± 1.2
288.15 K, m1 = 0.07667 | 1001.51 ± 0.11 | 1470.5 ± 1.2
288.15 K, m1 = 0.098 | 1002.15 ± 0.11 | 1471 ± 1.2
288.15 K, m1 = 0.1095 | 1002.5 ± 0.11 | 1471.1 ± 1.2
293.15 K, m1 = 0.00233 | 998.288 ± 0.11 | 1483.3 ± 1.2
293.15 K, m1 = 0.00278 | 998.306 ± 0.11 | 1483.3 ± 1.2
293.15 K, m1 = 0.00301 | 998.314 ± 0.11 | 1483.4 ± 1.2
293.15 K, m1 = 0.00467 | 998.376 ± 0.11 | 1483.7 ± 1.2
293.15 K, m1 = 0.00501 | 998.39 ± 0.11 | 1483.9 ± 1.2
293.15 K, m1 = 0.00665 | 998.451 ± 0.11 | 1484.2 ± 1.2
293.15 K, m1 = 0.00889 | 998.538 ± 0.12 | 1484.8 ± 1.3
293.15 K, m1 = 0.00906 | 998.544 ± 0.12 | 1484.8 ± 1.3
293.15 K, m1 = 0.01229 | 998.652 ± 0.11 | 1485.1 ± 1.2
293.15 K, m1 = 0.01511 | 998.738 ± 0.11 | 1485.1 ± 1.2
293.15 K, m1 = 0.01804 | 998.815 ± 0.11 | 1485.2 ± 1.2
293.15 K, m1 = 0.02431 | 998.999 ± 0.11 | 1485.2 ± 1.2
293.15 K, m1 = 0.03042 | 999.185 ± 0.11 | 1485.3 ± 1.2
293.15 K, m1 = 0.04595 | 999.641 ± 0.11 | 1485.4 ± 1.2
293.15 K, m1 = 0.06124 | 1000.09 ± 0.11 | 1485.5 ± 1.2
293.15 K, m1 = 0.07667 | 1000.53 ± 0.11 | 1485.7 ± 1.2
293.15 K, m1 = 0.098 | 1001.14 ± 0.11 | 1486 ± 1.2
293.15 K, m1 = 0.1095 | 1001.48 ± 0.11 | 1486.1 ± 1.2
298.15 K, m1 = 0.00233 | 997.123 ± 0.11 | 1497.4 ± 1.2
298.15 K, m1 = 0.00278 | 997.142 ± 0.11 | 1497.4 ± 1.2
298.15 K, m1 = 0.00301 | 997.148 ± 0.11 | 1497.6 ± 1.2
298.15 K, m1 = 0.00467 | 997.208 ± 0.11 | 1497.8 ± 1.2
298.15 K, m1 = 0.00501 | 997.221 ± 0.11 | 1497.9 ± 1.2
298.15 K, m1 = 0.00665 | 997.28 ± 0.11 | 1498.2 ± 1.2
298.15 K, m1 = 0.00889 | 997.362 ± 0.12 | 1498.8 ± 1.3
298.15 K, m1 = 0.00906 | 997.366 ± 0.12 | 1498.8 ± 1.3
298.15 K, m1 = 0.01229 | 997.472 ± 0.11 | 1499.1 ± 1.2
298.15 K, m1 = 0.01511 | 997.555 ± 0.11 | 1499.1 ± 1.2
298.15 K, m1 = 0.01804 | 997.629 ± 0.11 | 1499.1 ± 1.2
298.15 K, m1 = 0.02431 | 997.806 ± 0.11 | 1499.1 ± 1.2
298.15 K, m1 = 0.03042 | 997.989 ± 0.11 | 1499.1 ± 1.2
298.15 K, m1 = 0.04595 | 998.429 ± 0.11 | 1499.1 ± 1.2
298.15 K, m1 = 0.06124 | 998.861 ± 0.11 | 1499 ± 1.2
298.15 K, m1 = 0.07667 | 999.288 ± 0.11 | 1499.1 ± 1.2
298.15 K, m1 = 0.098 | 999.878 ± 0.11 | 1499.2 ± 1.2
298.15 K, m1 = 0.1095 | 1000.21 ± 0.11 | 1499.2 ± 1.2
303.15 K, m1 = 0.00233 | 995.721 ± 0.11 | 1509.7 ± 1.2
303.15 K, m1 = 0.00278 | 995.74 ± 0.11 | 1509.7 ± 1.2
303.15 K, m1 = 0.00301 | 995.746 ± 0.11 | 1509.8 ± 1.2
303.15 K, m1 = 0.00467 | 995.801 ± 0.11 | 1510 ± 1.2
303.15 K, m1 = 0.00501 | 995.814 ± 0.11 | 1510 ± 1.2
303.15 K, m1 = 0.00665 | 995.873 ± 0.11 | 1510.4 ± 1.2
303.15 K, m1 = 0.00889 | 995.95 ± 0.12 | 1511 ± 1.3
303.15 K, m1 = 0.00906 | 995.955 ± 0.11 | 1511 ± 1.3
303.15 K, m1 = 0.01229 | 996.058 ± 0.11 | 1511.2 ± 1.2
303.15 K, m1 = 0.01511 | 996.137 ± 0.11 | 1511.2 ± 1.2
303.15 K, m1 = 0.01804 | 996.207 ± 0.11 | 1511.2 ± 1.2
303.15 K, m1 = 0.02431 | 996.381 ± 0.11 | 1511.1 ± 1.2
303.15 K, m1 = 0.03042 | 996.556 ± 0.11 | 1511 ± 1.2
303.15 K, m1 = 0.04595 | 996.985 ± 0.11 | 1510.9 ± 1.2
303.15 K, m1 = 0.06124 | 997.402 ± 0.11 | 1510.8 ± 1.2
303.15 K, m1 = 0.07667 | 997.814 ± 0.11 | 1510.7 ± 1.2
303.15 K, m1 = 0.098 | 998.386 ± 0.11 | 1510.5 ± 1.2
303.15 K, m1 = 0.1095 | 998.705 ± 0.11 | 1510.5 ± 1.2
308.15 K, m1 = 0.00233 | 994.1 ± 0.11 | 1520.3 ± 1.2
308.15 K, m1 = 0.00278 | 994.121 ± 0.11 | 1520.2 ± 1.2
308.15 K, m1 = 0.00301 | 994.125 ± 0.11 | 1520.4 ± 1.2
308.15 K, m1 = 0.00467 | 994.18 ± 0.11 | 1520.6 ± 1.2
308.15 K, m1 = 0.00501 | 994.193 ± 0.11 | 1520.6 ± 1.2
308.15 K, m1 = 0.00665 | 994.246 ± 0.11 | 1520.9 ± 1.2
308.15 K, m1 = 0.00889 | 994.32 ± 0.12 | 1521.4 ± 1.3
308.15 K, m1 = 0.00906 | 994.325 ± 0.11 | 1521.4 ± 1.3
308.15 K, m1 = 0.01229 | 994.423 ± 0.11 | 1521.7 ± 1.2
308.15 K, m1 = 0.01511 | 994.502 ± 0.11 | 1521.6 ± 1.2
308.15 K, m1 = 0.01804 | 994.571 ± 0.11 | 1521.6 ± 1.2
308.15 K, m1 = 0.02431 | 994.739 ± 0.11 | 1521.5 ± 1.2
308.15 K, m1 = 0.03042 | 994.91 ± 0.11 | 1521.4 ± 1.2
308.15 K, m1 = 0.04595 | 995.323 ± 0.11 | 1521.1 ± 1.2
308.15 K, m1 = 0.06124 | 995.729 ± 0.11 | 1520.8 ± 1.2
308.15 K, m1 = 0.07667 | 996.129 ± 0.11 | 1520.7 ± 1.2
308.15 K, m1 = 0.098 | 996.685 ± 0.11 | 1520.3 ± 1.2
308.15 K, m1 = 0.1095 | 996.993 ± 0.11 | 1520.1 ± 1.2
313.15 K, m1 = 0.00233 | 992.28 ± 0.11 | 1529.3 ± 1.2
313.15 K, m1 = 0.00278 | 992.299 ± 0.11 | 1529.3 ± 1.2
313.15 K, m1 = 0.00301 | 992.305 ± 0.11 | 1529.4 ± 1.2
313.15 K, m1 = 0.00467 | 992.357 ± 0.11 | 1529.6 ± 1.2
313.15 K, m1 = 0.00501 | 992.368 ± 0.11 | 1529.6 ± 1.2
313.15 K, m1 = 0.00665 | 992.422 ± 0.11 | 1529.8 ± 1.2
313.15 K, m1 = 0.00889 | 992.489 ± 0.11 | 1530.3 ± 1.2
313.15 K, m1 = 0.00906 | 992.495 ± 0.11 | 1530.3 ± 1.2
313.15 K, m1 = 0.01229 | 992.591 ± 0.11 | 1530.6 ± 1.2
313.15 K, m1 = 0.01511 | 992.671 ± 0.11 | 1530.5 ± 1.2
313.15 K, m1 = 0.01804 | 992.736 ± 0.11 | 1530.5 ± 1.2
313.15 K, m1 = 0.02431 | 992.896 ± 0.11 | 1530.3 ± 1.2
313.15 K, m1 = 0.03042 | 993.064 ± 0.11 | 1530.1 ± 1.2
313.15 K, m1 = 0.04595 | 993.467 ± 0.11 | 1529.7 ± 1.2
313.15 K, m1 = 0.06124 | 993.86 ± 0.11 | 1529.3 ± 1.2
313.15 K, m1 = 0.07667 | 994.248 ± 0.11 | 1529 ± 1.2
313.15 K, m1 = 0.098 | 994.79 ± 0.11 | 1528.5 ± 1.2
313.15 K, m1 = 0.1095 | 995.087 ± 0.11 | 1528.2 ± 1.2
